The test system of the test is T1, prolactin-releasing peptide receptor (PRRPR).
T1 construct: full ORF (XP_021184170.1) fused to GFP (PRRPR-GFP), in membranes of overexpressing HaEpi cells
Briefly: saturation binding to membranes of PRRPR-GFP-overexpressing HaEpi cells, bound […] quantified by enzyme immunoassay ([…]-EIA). The arrangement: species or system Helicoverpa armigera.

Regarding `CC(C)(O)CC[C@@H](O)[C@](C)(O)[C@H]1CC[C@@]2(O)C3=CC(=O)[C@@H]4C[C@@H](O)[C@@H](O)C[C@]4(C)[C@H]3CC[C@]12C` [20E, 20-hydroxyecdysone], the affinity, expressed as Kd, was 12.8 ± 2.19 nM.

Source of the values: PMC8576438, “Identification and Functional Analysis of G Protein-Coupled Receptors in 20-Hydroxyecdysone Signaling From the Helicoverpa armigera Genome” (Frontiers in Cell and Developmental Biology, 2021).
